From patent US7674429B2, “Electrostatic disinfectant delivery” (JohnsonDiversey, Inc., priority 2001, dated 2010) come the findings set out here.

Data set [1] is described as follows: Viscosity measurement (Brookfield DV-III rheometer). The data set is classed as physicochemical. How it is done:
(§1) Various disinfectant compositions were measured to determine associated viscosity, conductivity and/or delivery rate parameters. Viscosity measurements were conducted with a Brookfield DV-III rheometer using procedures well known to those skilled in the art. Conductivity measurements were taken using a conductivity meter (Accumet Basic AV30) instrument using a two cell conductivity probe (epoxy body with a cell constant of 1.0). Delivery rates were determined with a preferred electrostatic delivery apparatus, available through In-Vironmental Integrity, Inc. of Minneapolis, Minn. under the “Aromasys” trademark using standard procedures and protocols.

Data set [2] can be described thus: Conductivity measurement (Accumet Basic AV30, two cell probe). The data set is classed as physicochemical. As to the method:
as §1

The molecule `OCCOCCOCCO` [triethylene glycol] had a viscosity in data set [1] of 51.5 cps. The conductivity in data set [2] was found to be 0.354 uS/cm.
